This note sets out measurements from patent US20230150997A1, “EIF4E INHIBITORS AND USES THEREOF” (PIC Therapeutics, Inc., priority 2021, published 2023).

As a reminder, the IC50 is the midpoint of a concentration-inhibition curve.

Each structure is given as a SMILES string.

In this test the target is T1, Human eIF4E (Homo sapiens, UniProt P06730).
T1 construct: Human eIF4E (aa 28-217) with a C-terminal His-tag; made in house
T1 sequence (P06730 28-217): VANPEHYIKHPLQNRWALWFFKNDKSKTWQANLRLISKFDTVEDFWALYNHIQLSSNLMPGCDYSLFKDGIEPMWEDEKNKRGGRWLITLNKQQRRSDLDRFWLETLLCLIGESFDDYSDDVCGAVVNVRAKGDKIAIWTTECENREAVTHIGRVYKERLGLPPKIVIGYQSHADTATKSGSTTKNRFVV
In words: Human eIF4E/4G2 binding assay (TR-FRET). The settings on record: purified human eIF4E (aa 28-217), biotin labeled 4G2 peptide, 4 hours preincubation at room temperature. As for the experimental part:
Example 3. Compound Testing in Human eIF4E/4G2 Binding Assay
Human eIF4E (aa 28-217) with a C-terminal His-tag was expressed in E. coli in inclusion bodies. The protein was solubilized with 8 M urea and purified under denaturing conditions using nickel-charged HisTrap HP columns (GE Healthcare). The purified protein was then refolded by diluting in 20 mM Hepes pH 7.0, 0.5 M NaCl, 1 mM DTT, 1 mM EDTA, 0.5 M arginine plus 6 M urea, and then dialyzing overnight into the same buffer without the urea. The protein was further dialyzed into 20 mM Hepes, pH 6.5, 50 mM NaCl, 1 mM EDTA, 1 mM DTT, and concentrated using Hitrap SP sepharose FF columns (GE Healthcare). The concentrated protein was dialyzed into 20 mM Hepes, pH 7.0, 0.5 M NaCl, 5 mM DTT and 10% glycerol, and stored at -80° C. until use.
Test compounds (3.43 mM stock in DMSO) were diluted 2-fold in series in DMSO (10 concentration points). Compound solutions (1.2 µl/well) were added into black 384-well polypropylene microplates (Matrix, Thermal Scientific). Twenty-two microliters per well of Assay Buffer (50 mM NaPi, pH 6.5, 50 mM KCl, 1 mM DTT and 0.5 mg/ml gamma globulin) and eight microliters per well of 82.5 nM purified eIF4E in Assay Buffer were added. The samples were incubated at room temperature (20-23° C.) for 4 hours. Biotin labeled 4G2 peptide (Ac-Lys-Gln-Tyr-Asp-Arg-Glu-Phe-Leu-Leu-Asp-Phe-Gln-Phe-Met-Pro-Lys(Aha-Bio)-NH2, 1.75 µM stock in DMSO) was diluted to 0.14 µM in Assay Buffer (without DTT) and 5 µl/well was added. The samples were incubated at room temperature for 20 min. Five microliters per well of 6.4 nM Eu-streptavidin (Eu-SA, Perkin Elmer) and 80 nM Allophycocyanin (APC)-anti His antibody (Columbia Biosciences) in Assay Buffer (without DTT) were then added and the samples were incubated at room temperature for 20 min.
Assay signals were monitored by reading excitation at 340 nm and emission fluorescence at 615 nm and 665 nm on an Envision reader (Perkin Elmer). Normalized TR-FRET (time-resolved fluorescence resonance energy transfer) assay signal (Rn) was calculated by the formula: Rn = [(A-Ba-C x D)/(D-Bd)] x (Dc- Bd) • Where A is the fluorescence intensity of the sample at 665 nm, • D is the fluorescence intensity of the sample at 615 nm, • Ba and Bd are plate backgrounds at 665 nm and 615 nm, respectively, • Dc is the fluorescence intensity of 0.78 nM Eu-SA in the assay buffer at 615 nm • The cross-talk factor (C) is determined by the following formula: • C = (Ac- Ba)/(Dc-Bd) • Where Ac is the fluorescence intensity of 0.78 nM Eu-SA in the assay buffer at 665 nm.
IC50 values were calculated using xLFit program (IDBS). Table 2 below lists […] of some compounds, wherein A represents IC50 ≤ 0.5 µM; B represents 0.5 uM < IC50 ≤ 1 µM; and C represents IC50 > 1 µM.
For the molecule `COCCOc1cc(-c2nc(Nc3ncc(-c4cccs4)cc3C(=O)O)sc2CC(C)C)ccc1C(F)(F)F` [I-76, 2-((5-isobutyl-4-(3-(2-methoxyethoxy)-4-(trifluoromethyl)phenyl)thiazol-2-yl)amino)-5-(thiophen-2-yl)nicotinic acid], the IC50 is not above 0.5 µM.
For the molecule `COCCOc1ccc(-c2nc(Nc3ncc(-c4cccs4)cc3C(=O)O)sc2CCOC)cc1F` [I-50], the IC50 was 0.5 to 1 µM.
As for `CC(C)Cc1sc(Nc2ncc(-c3cccs3)cc2C(=O)O)nc1-c1ccc(OCC(N)=O)cc1` [I-17, 2-((4-(4-(2-amino-2-oxoethoxy)phenyl)-5-isobutylthiazol-2-yl)amino)-5-(thiophen-2-yl)nicotinic acid], the figure is not above 0.5 µM; as for `Cc1csc(-c2cnc(Nc3nc(-c4ccc(OC(F)F)cc4)c(CC(C)C)s3)c(C(=O)O)c2)c1` [1-36], not above 0.5 µM; as for `CCOc1cc(-c2nc(Nc3ncc(-c4cccs4)cc3C(=O)O)sc2CC(C)C)ccc1F` [I-81], not above 0.5 µM.
Under `COCCCOc1ccc(-c2nc(Nc3ncc(-c4cccs4)cc3C(=O)O)sc2CC(C)C)cc1Cl` [I-48] stands not above 0.5 µM; under `COCCOc1cccc(-c2nc(Nc3ncc(-c4cccs4)cc3C(=O)O)sc2CC(C)C)c1` [I-122, 2-((5-isobutyl-4-(3-(2-methoxyethoxy)phenyl)thiazol-2-yl)amino)-5-(thiophen-2-yl)nicotinic acid], not above 0.5 µM; under `CC(C)Cc1sc(Nc2ncc(-c3cccs3)cc2C(=O)O)nc1-c1ccc(F)c(OCCOC(C)C)c1` [I-87], not above 0.5 µM.
As for `COc1cc(-c2nc(Nc3ncc(-c4cccs4)cc3C(=O)O)sc2CCC(C)C)ccc1Cl` [I-90], the figure is not above 0.5 µM.
`COCCOCCOc1ccc(-c2nc(Nc3ncc(-c4cccs4)cc3C(=O)O)sc2CC(C)C)cc1F` [I-68] displayed an IC50 of 0.5 to 1 µM.
`CCN(CC)CCOCCOc1cccc(-c2nc(Nc3ncc(-c4cccs4)cc3C(=O)O)sc2CC(C)C)c1` [I-117]: the IC50 is more than 1 µM.
As for `CCOc1cc(-c2nc(Nc3ncc(-c4cccs4)cc3C(=O)O)sc2CC(C)(C)C)ccc1Cl` [I-93], the figure is not above 0.5 µM; as for `CCOc1cccc(-c2nc(Nc3ncc(-c4cccs4)cc3C(=O)O)sc2CCC(C)C)c1` [I-105], not above 0.5 µM.
Under `COCCOc1ccc(-c2nc(Nc3ncc(-c4cccs4)cc3C(=O)O)sc2CC2CCCCC2)cc1F` [I-72] stands not above 0.5 µM.
`COc1cc(C)cc(-c2nc(Nc3ncc(-c4cccs4)cc3C(=O)O)sc2CC(C)C)c1` [I-109]: the IC50 was not above 0.5 µM.
Under `COc1ccc(-c2nc(Nc3ccc(-c4cccs4)nc3C(=O)O)sc2CC(C)C)cc1F` [I-70] stands not above 0.5 µM; under `COc1cc(-c2nc(Nc3ncc(-c4cccs4)cc3C(=O)O)sc2CCC(C)C)ccc1C` [I-108], not above 0.5 µM.
Regarding `CC(C)Cc1sc(Nc2ncc(-c3cccs3)cc2C(=O)O)nc1-c1ccc(OCCOC(C)C)c(F)c1` [I-67], the IC50 was not above 0.5 µM.
As for `COCCOc1ccc(-c2nc(Nc3ncc(-c4ccc(C)s4)cc3C(=O)O)sc2CC(C)C)cc1F` [I-41], the figure is not above 0.5 µM.
With `CCOc1cc(-c2nc(Nc3ncc(-c4cccs4)cc3C(=O)O)sc2CC(C)(C)C)ccc1F` [I-92], the IC50 is not above 0.5 µM.
In turn, `CCc1cccc(-c2nc(Nc3ncc(-c4cccs4)cc3C(=O)O)sc2CC(C)C)c1` [I-123] had an IC50 not above 0.5 µM.
As for `COc1ccc(-c2nc(Nc3cc(-c4ccccc4)sc3C(=O)O)sc2C2CC2)cc1` [I-21], the IC50 fell in the range of 0.5 to 1 µM.
Take `CCOc1ccc(-c2nc(Nc3ncc(-c4cccs4)cc3C(=O)O)sc2CC(C)C)cc1` [I-11]: the IC50 is not above 0.5 µM.
Molecule `CCCc1sc(Nc2ncc(-c3cccs3)cc2C(=O)O)nc1-c1ccc(OCCOC)c(F)c1` [I-49] yielded an IC50 of 0.5 to 1 µM.
In the case of `COCCOc1ccc(-c2nc(Nc3ncc(-c4cccs4)nc3C(=O)O)sc2CC(C)C)cc1F` [I-54], the IC50 was not above 0.5 µM.
For the molecule `COCCOc1cccc(-c2nc(Nc3ncc(-c4cccs4)cc3C(=O)OC)sc2CC(C)C)c1` [I-148, methyl 2-((5-isobutyl-4-(3-(2-methoxyethoxy)phenyl)thiazol-2-yl)amino)-5-(thiophen-2-yl)nicotinate], the IC50 was more than 1 µM.
As for `Cc1ccc(-c2cnc(Nc3nc(-c4ccc(OC(F)F)cc4)c(CC(C)C)s3)c(C(=O)O)c2)s1` [I-33], the IC50 was more than 1 µM.
In the case of `COc1ccc(-c2nc(Nc3cc(-c4ccccc4)sc3C(=O)O)sc2C2CC2)c(F)c1` [I-25], the IC50 was 0.5 to 1 µM.
As for `CCOc1cccc(-c2nc(Nc3cc(C(=O)O)c(-c4cccs4)cn3)sc2CC(C)C)c1` [I-130, 2-((4-(3-ethoxyphenyl)-5-isobutylthiazol-2-yl)amino)-5-(thiophen-2-yl)isonicotinic acid], the IC50 lay within 0.5 to 1 µM.
As for `O=C(O)c1cc(-c2cccs2)cnc1Nc1nc(-c2ccc(OC3CC3)cc2)c(C2CC2)s1` [I-19], the figure is 0.5 to 1 µM; as for `COCCOc1ccc(-c2nc(Nc3ncc(-c4cccs4)cc3C(=O)OC)sc2CC(C)C)cc1F` [I-53, methyl 2-((4-(3-fluoro-4-(2-methoxyethoxy)phenyl)-5-isobutylthiazol-2-yl)amino)-5-(thiophen-2-yl)nicotinate], more than 1 µM.
As for `COCCOc1ccc(-c2nc(Nc3ncc(-c4cccc(F)c4)cc3C(=O)O)sc2CC(C)C)cc1F` [I-52], the figure is not above 0.5 µM.
`Cc1ccc(-c2nc(Nc3ncc(-c4cccs4)cc3C(=O)O)sc2CC(C)C)s1` [I-141] showed an IC50 not above 0.5 µM.
`COCCOc1ccc(-c2nc(Nc3ncc(-c4ccc(C)s4)cc3C(=O)O)sc2CC(C)C)cc1` [I-34]: the IC50 is not above 0.5 µM.
Under `CCOCCOc1ccc(-c2nc(Nc3ncc(-c4cccs4)cc3C(=O)O)sc2CC(C)C)cc1F` [I-66] stands not above 0.5 µM; under `COCCOc1ccc(-c2nc(Nc3ncc(-c4cccs4)cc3C(=O)O)sc2C2CCCC2)cc1F` [I-32], 0.5 to 1 µM; under `COCCOc1ccc(-c2nc(Nc3ncc(-c4cccs4)cc3C(=O)O)sc2CCC(C)C)cc1Cl` [I-45], not above 0.5 µM.
As for `CC(C)Cc1sc(Nc2ncc(-c3cccs3)cc2C(=O)O)nc1-c1cccc(OCCF)c1` [I-103], the IC50 is not above 0.5 µM.
Molecule `COCCCOc1ccc(-c2nc(Nc3ncc(-c4cccs4)cc3C(=O)O)sc2CC(C)C)cc1F` [I-47] registered an IC50 not above 0.5 µM.
As for `CC(C)Cc1sc(Nc2ncc(-c3cccs3)cc2C(=O)O)nc1-c1ccc(O)c(Cl)c1` [I-1, 2-((4-(3-chloro-4-hydroxyphenyl)-5-isobutylthiazol-2-yl)amino)-5-(thiophen-2-yl)nicotinic acid], the IC50 is not above 0.5 µM.
In the case of `COc1ccc(-c2nc(Nc3ncc(-c4cccs4)nc3C(=O)O)sc2CC(C)C)cc1F` [I-60, 3-((4-(3-fluoro-4-methoxyphenyl)-5-isobutylthiazol-2-yl)amino)-6-(thiophen-2-yl)pyrazine-2-carboxylic acid], the IC50 was not above 0.5 µM.
For `COCCOc1ccc(-c2nc(Nc3ncc(-c4cc(C)cs4)cc3C(=O)O)sc2CC(C)C)cc1Cl` [I-44], the IC50 was not above 0.5 µM.
For the molecule `COc1cc(-c2nc(Nc3ncc(-c4cccs4)cc3C(=O)O)sc2CC(C)C)ccc1C` [I-107], the IC50 was not above 0.5 µM.
Molecule `CC(C)Cc1sc(Nc2ncc(-c3cccs3)cc2C(=O)O)nc1-c1ccc(OC(F)(F)F)c(F)c1` [I-10] displayed an IC50 not above 0.5 µM.
For `CC(C)COc1cc(-c2nc(Nc3ncc(-c4cccs4)cc3C(=O)O)sc2CC(C)(C)C)ccc1F` [I-96], the concentration for half-maximal inhibition (IC50) was not above 0.5 µM.
Regarding `COCCOc1ccc(-c2nc(Nc3ncc(-c4cccs4)cc3C(=O)O)sc2CCC(C)C)cc1F` [I-46], the IC50 is not above 0.5 µM.
In the case of `CC(C)Cc1sc(Nc2ncc(-c3cccs3)cc2C(=O)O)nc1-c1ccc(F)c(OC(C)C)c1` [I-86], the IC50 is not above 0.5 µM.
Under `COc1ccc(-c2nc(Nc3ncc(-c4cccs4)nc3C(=O)O)sc2CCC(C)C)cc1F` [I-62] stands not above 0.5 µM; under `COCCOc1ccc(-c2nc(Nc3ncc(-c4cccs4)cc3C(=O)O)sc2CC(C)C)cc1` [I-16], not above 0.5 µM.
